# Assay results from PubChem BioAssay (NCI).
#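 Five compound concentrations were applied to cells in 96-well plates for 48 hours; endpoints were derived by simple linear interpolation of the resulting dose-response curve. Here, GI50 denotes the concentration required for 50% inhibition of growth. TGI is the concentration that stops growth completely.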
# What was measured:
# Experiment in all cases: inhibition of tumour cell growth, NCI panel, 48 h
# [1] = tested on: SK-MEL-28 melanoma
# [2] = tested on: SR leukemia
# [3] = tested on: OVCAR-5 ovarian
# [4] = tested on: NCI/ADR-RES ovarian
# [5] = tested on: SNB-75 CNS
# [6] = tested on: BT-549 breast
# [7] = tested on: PC-3 prostate
# [8] = tested on: NCI-H460 lung
# [9] = tested on: M14 melanoma
# [10] = tested on: LOX IMVI melanoma
# [11] = tested on: UO-31 renal
# [12] = tested on: ACHN renal
# [13] = tested on: SF-539 CNS
# [14] = tested on: HCT-15 colon
# [15] = tested on: CAKI-1 renal
# [16] = tested on: HS 578T breast
# [17] = tested on: HL-60(TB) leukemia
# [18] = tested on: A549 NSCLC
# [19] = tested on: IGROV1 ovarian
# [20] = tested on: NCI-H226 lung
# [21] = tested on: MOLT-4 leukemia
# [22] = tested on: SK-MEL-2 melanoma
# [23] = tested on: SF-295 CNS
# [24] = tested on: HCT-116 colon
# [25] = tested on: NCI-H23 lung
# [26] = tested on: HOP-62 NSCLC
# [27] = tested on: OVCAR-4 ovarian
# [28] = tested on: MDA-MB-435
# [29] = tested on: RXF 393 renal
# [30] = tested on: UACC-62 melanoma
# [31] = tested on: COLO 205 colon
# [32] = tested on: T-47D breast
# [33] = tested on: EKVX NSCLC
# [34] = tested on: SF-268 CNS
# [35] = tested on: SW-620 colon
# [36] = tested on: DU-145 prostate
# [37] = tested on: HCC-2998 colon
# [38] = tested on: U251 CNS
# [39] = tested on: MALME-3M melanoma
# [40] = tested on: A498 renal
# [41] = tested on: MDA-MB-231 breast
# [42] = tested on: HOP-92 NSCLC
# [43] = tested on: SK-MEL-5 melanoma
# [44] = tested on: 786-0 renal
# [45] = tested on: SNB-19 CNS
# [46] = tested on: TK-10 renal
# [47] = tested on: OVCAR-8 ovarian
# [48] = tested on: OVCAR-3 ovarian
# [49] = tested on: SK-OV-3 ovarian
# [50] = tested on: KM12 colon
# [51] = tested on: SN12C renal
# [52] = tested on: HT29 colon
# [53] = tested on: UACC-257 melanoma
# [54] = tested on: MCF7 breast
smiles,measurement,setting,value
NC(=NCCCCCCN=C(N)/N=C(\N)Nc1ccc(Cl)cc1)/N=C(\N)Nc1ccc(Cl)cc1,GI50,[1],1700 nM
same,TGI,[1],6000 nM
same,GI50,[2],945 nM
same,TGI,[2],2370 nM
same,GI50,[3],1830 nM
same,TGI,[3],6320 nM
same,GI50,[4],4090 nM
same,TGI,[4],50000 nM
same,GI50,[5],1030 nM
same,TGI,[5],2920 nM
same,GI50,[6],1520 nM
same,TGI,[6],4240 nM
same,GI50,[7],1740 nM
same,TGI,[7],6380 nM
same,GI50,[8],929 nM
same,TGI,[8],1920 nM
same,GI50,[9],1710 nM
same,TGI,[9],6000 nM
same,GI50,[10],958 nM
same,TGI,[10],2190 nM
same,GI50,[11],2610 nM
same,TGI,[11],11000 nM
same,GI50,[12],2180 nM
same,TGI,[12],8360 nM
same,GI50,[13],1620 nM
same,TGI,[13],3980 nM
same,GI50,[14],2000 nM
same,TGI,[14],9460 nM
same,GI50,[15],1330 nM
same,TGI,[15],4790 nM
same,GI50,[16],1430 nM
same,TGI,[16],4730 nM
same,GI50,[17],1100 nM
same,TGI,[17],2490 nM
same,GI50,[18],1050 nM
same,TGI,[18],5300 nM
same,GI50,[19],1280 nM
same,TGI,[19],3160 nM
same,GI50,[20],1790 nM
same,TGI,[20],9120 nM
same,GI50,[21],1090 nM
same,TGI,[21],2840 nM
same,GI50,[22],1310 nM
same,TGI,[22],3180 nM
same,GI50,[23],966 nM
same,TGI,[23],2350 nM
same,GI50,[24],1740 nM
same,TGI,[24],6120 nM
same,GI50,[25],1160 nM
same,TGI,[25],3590 nM
same,GI50,[26],1330 nM
same,TGI,[26],4060 nM
same,GI50,[27],1720 nM
same,TGI,[27],6460 nM
same,GI50,[28],1540 nM
same,TGI,[28],5940 nM
same,GI50,[29],1880 nM
same,TGI,[29],8110 nM
same,GI50,[30],1280 nM
same,TGI,[30],4320 nM
same,GI50,[31],951 nM
same,TGI,[31],1710 nM
same,GI50,[32],1710 nM
same,TGI,[32],7720 nM
same,GI50,[33],1530 nM
same,TGI,[33],8300 nM
same,GI50,[34],1480 nM
same,TGI,[34],4460 nM
same,GI50,[35],1540 nM
same,TGI,[35],5150 nM
same,GI50,[36],1930 nM
same,TGI,[36],6520 nM
same,GI50,[37],1800 nM
same,TGI,[37],6330 nM
same,GI50,[38],1070 nM
same,TGI,[38],2770 nM
same,GI50,[39],1100 nM
same,TGI,[39],3280 nM
same,GI50,[40],1600 nM
same,TGI,[40],6220 nM
same,GI50,[41],1420 nM
same,TGI,[41],3960 nM
same,GI50,[42],1410 nM
same,TGI,[42],3800 nM
same,GI50,[43],908 nM
same,TGI,[43],1730 nM
same,GI50,[44],1600 nM
same,TGI,[44],5800 nM
same,GI50,[45],1460 nM
same,TGI,[45],5970 nM
same,GI50,[46],2130 nM
same,TGI,[46],8900 nM
same,GI50,[47],1670 nM
same,TGI,[47],7190 nM
same,GI50,[48],1450 nM
same,TGI,[48],3550 nM
same,GI50,[49],916 nM
same,TGI,[49],5540 nM
same,GI50,[50],927 nM
same,TGI,[50],1740 nM
same,GI50,[51],1270 nM
same,TGI,[51],5770 nM
same,GI50,[52],1620 nM
same,TGI,[52],5180 nM
same,GI50,[53],2010 nM
same,TGI,[53],7930 nM
same,GI50,[54],1600 nM
same,TGI,[54],5490 nM
